From patent publication US9833497B2, “Human originated EGF domain proteins and use of the same” (CHENGDU SOURCEBIO LIMITED-LIABILITY COMPANY, priority 2013, dated 2017)

Experiments:
Type in all cases: cell-based
E. coli DH5α = assay: Antibacterial activity: MIC and growth curve against E. coli DH5α in 96-well plate; details: minimal inhibitory concentration against E. coli DH5α; 96-well plate, 5×10^5 CFU/mL, 37° C., judged after 8 h
In short: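 Log-phase DH5α (OD600 about 0.5, 37° C, 185 rpm in LB) was pelleted, resuspended in fresh LB and seeded at 5×10^5 CFU/mL with recombinant protein at 50, 25 and 12.5 μg/mL (two-fold series), in triplicate. Plates were shaken at 175 rpm, 37° C, and OD600 was read every 30 min. MIC was the lowest concentration with no growth.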

E. coli BL21 = assay: MIC against Gram-negative bacteria: E. coli BL21; details: 5×10^5 CFU/mL
In short: (§1)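 LB broth cultures at McFarland 0.5, spun down, resuspended, diluted to 5×10^5 CFU/mL final. Two-fold serial dilutions of purified human EGF domain proteins, triplicate. 37° C, 175 rpm shaking. Endpoint: no visible growth.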

Pseudomonas aeruginosa = assay: MIC against Gram-negative bacteria: Pseudomonas aeruginosa; details: 5×10^5 CFU/mL
In short: as §1

Klebsiella pneumonia = assay: MIC against Gram-negative bacteria: Klebsiella pneumonia; details: 5×10^5 CFU/mL
In short: as §1

Enterobacter cloacae = assay: MIC against Gram-negative bacteria: Enterobacter cloacae; details: 5×10^5 CFU/mL
In short: as §1

Aeromonas hydrophila = assay: MIC against Gram-negative bacteria: Aeromonas hydrophila; details: 5×10^5 CFU/mL
In short: as §1

Citrobacter diversus = assay: MIC against Gram-negative bacteria: Citrobacter diversus; details: 5×10^5 CFU/mL
In short: as §1

Moraxella catarrhalis = assay: MIC against Gram-negative bacteria: Moraxella catarrhalis; details: 5×10^5 CFU/mL
In short: as §1

Proteus mirabilis = assay: MIC against Gram-negative bacteria: Proteus mirabilis; details: 5×10^5 CFU/mL
In short: as §1

Proteus vulgaris = assay: MIC against Gram-negative bacteria: Proteus vulgaris; details: 5×10^5 CFU/mL
In short: as §1

Serratia marcescens = assay: MIC against Gram-negative bacteria: Serratia marcescens; details: 5×10^5 CFU/mL
In short: as §1

[1] = E. coli BL21, 96-well plate, 37° C., 10 h
[2] = Pseudomonas aeruginosa, 96-well plate, 37° C., 10 h
[3] = Klebsiella pneumonia, 96-well plate, 37° C., 10 h
[4] = Enterobacter cloacae, 96-well plate, 37° C., 10 h
[5] = Aeromonas hydrophila, 96-well plate, 37° C., 10 h
[6] = Citrobacter diversus, 96-well plate, 37° C., 10 h
[7] = Moraxella catarrhalis, 96-well plate, 37° C., 10 h
[8] = Proteus mirabilis, 96-well plate, 37° C., 10 h
[9] = Proteus vulgaris, 96-well plate, 37° C., 10 h
[10] = Serratia marcescens, 96-well plate, 37° C., 10 h
[11] = E. coli BL21, 10 h cultivation at 37° C.
[12] = P. aeruginosa, 10 h cultivation at 37° C.
[13] = K. pneumonia, 10 h cultivation at 37° C.
[14] = E. cloacae, 10 h cultivation at 37° C.
[15] = A. hydrophila, 10 h cultivation at 37° C.
[16] = C. diversus, 10 h cultivation at 37° C.
[17] = M. catarrhalis, 10 h cultivation at 37° C.
[18] = P. mirabilis, 10 h cultivation at 37° C.
[19] = P. vulgaris, 10 h cultivation at 37° C.
[20] = S. marcescens, 10 h cultivation at 37° C.
[21] = 10 h cultivation at 37° C., two-fold serial dilution

Substance: PRT1329 (LPAVCTPPCSAHATCKENNTCECNLDYEGDGITCT; listed as Homo sapiens)
- MIC (E. coli DH5α): 12.5 µg/mL
- MIC against E. coli BL21 (E. coli BL21; [1]): 50 µg/mL
- MIC against P. aeruginosa (Pseudomonas aeruginosa; [2]): 12.5 µg/mL
- MIC against K. pneumonia (Klebsiella pneumonia; [3]): 50 µg/mL
- MIC against E. cloacae (Enterobacter cloacae; [4]): 12.5 µg/mL
- MIC against A. hydrophila (Aeromonas hydrophila; [5]): 50 µg/mL
- MIC against C. diversus (Citrobacter diversus; [6]): 25 µg/mL
- MIC against M. catarrhalis (Moraxella catarrhalis; [7]): 12.5 µg/mL
- MIC against P. mirabilis (Proteus mirabilis; [8]): 25 µg/mL
- MIC against P. vulgaris (Proteus vulgaris; [9]): 25 µg/mL
- MIC against S. marcescens (Serratia marcescens; [10]): 25 µg/mL

Substance: PRT457 (DVDECLQGRCEQVCVNSPGSYTCHCDGRGGLKLSQDMDTCE; listed as Homo sapiens)
- MIC (E. coli DH5α): 50 µg/mL
- MIC against E. coli BL21 (E. coli BL21; 96-well plate, 37° C., 10 h): 25 µg/mL
- MIC against P. aeruginosa (Pseudomonas aeruginosa; 96-well plate, 37° C., 10 h): 12.5 µg/mL
- MIC against K. pneumonia (Klebsiella pneumonia; 96-well plate, 37° C., 10 h): 50 µg/mL
- MIC against E. cloacae (Enterobacter cloacae; 96-well plate, 37° C., 10 h): 25 µg/mL
- MIC against A. hydrophila (Aeromonas hydrophila; 96-well plate, 37° C., 10 h): 12.5 µg/mL
- MIC against C. diversus (Citrobacter diversus; 96-well plate, 37° C., 10 h): 25 µg/mL
- MIC against M. catarrhalis (Moraxella catarrhalis; 96-well plate, 37° C., 10 h): 50 µg/mL
- MIC against P. mirabilis (Proteus mirabilis; 96-well plate, 37° C., 10 h): 12.5 µg/mL
- MIC against P. vulgaris (Proteus vulgaris; 96-well plate, 37° C., 10 h): 50 µg/mL
- MIC against S. marcescens (Serratia marcescens; 96-well plate, 37° C., 10 h): 12.5 µg/mL

Substance: PRT1458 (CNCHLSGALNETCHLVTGQCFCKQFVTGSKCDACVPSASHLDVNNLLGCSK; listed as Homo sapiens)
- MIC (E. coli DH5α): 12.5 µg/mL
- MIC against E. coli BL21 (E. coli BL21; [11]): 12.5 µg/mL
- MIC against P. aeruginosa (Pseudomonas aeruginosa; Pseudomonas aeruginosa, 10 h cultivation at 37° C.): 25 µg/mL
- MIC against K. pneumonia (Klebsiella pneumonia; Klebsiella pneumonia, 10 h cultivation at 37° C.): 12.5 µg/mL
- MIC against E. cloacae (Enterobacter cloacae; Enterobacter cloacae, 10 h cultivation at 37° C.): 25 µg/mL
- MIC against A. hydrophila (Aeromonas hydrophila; Aeromonas hydrophila, 10 h cultivation at 37° C.): 50 µg/mL
- MIC against C. diversus (Citrobacter diversus; Citrobacter diversus, 10 h cultivation at 37° C.): 25 µg/mL
- MIC against M. catarrhalis (Moraxella catarrhalis; Moraxella catarrhalis, 10 h cultivation at 37° C.): 25 µg/mL
- MIC against P. mirabilis (Proteus mirabilis; Proteus mirabilis, 10 h cultivation at 37° C.): 12.5 µg/mL
- MIC against P. vulgaris (Proteus vulgaris; Proteus vulgaris, 10 h cultivation at 37° C.): 25 µg/mL
- MIC against S. marcescens (Serratia marcescens; Serratia marcescens, 10 h cultivation at 37° C.): 50 µg/mL

Substance: PRT217 (DIDECTIPPYCHQRCVNTPGSFYCQCSPGFQLAANNYTCV; listed as Homo sapiens)
- MIC (E. coli DH5α): 12.5 µg/mL
- MIC (μg/mL) E. coli BL21 (E. coli BL21; [11]): 25 µg/mL
- MIC (μg/mL) P. aeruginosa (Pseudomonas aeruginosa; [12]): 12.5 µg/mL
- MIC (μg/mL) K. pneumonia (Klebsiella pneumonia; [13]): 25 µg/mL
- MIC (μg/mL) E. cloacae (Enterobacter cloacae; [14]): 12.5 µg/mL
- MIC (μg/mL) A. hydrophila (Aeromonas hydrophila; [15]): 25 µg/mL
- MIC (μg/mL) C. diversus (Citrobacter diversus; [16]): 12.5 µg/mL
- MIC (μg/mL) M. catarrhalis (Moraxella catarrhalis; [17]): 12.5 µg/mL
- MIC (μg/mL) P. mirabilis (Proteus mirabilis; [18]): 12.5 µg/mL
- MIC (μg/mL) P. vulgaris (Proteus vulgaris; [19]): 12.5 µg/mL
- MIC (μg/mL) S. marcescens (Serratia marcescens; [20]): 50 µg/mL

Substance: PRT106 (RSVCDLFPSYCHNGGQCYLVENIGAFCRCNTQDYIWHKGMRCE; listed as Homo sapiens)
- MIC (E. coli DH5α): 12.5 µg/mL
- MIC (μg/mL) E. coli BL21 (E. coli BL21; [1]): 50 µg/mL
- MIC (μg/mL) P. aeruginosa (Pseudomonas aeruginosa; [2]): 12.5 µg/mL
- MIC (μg/mL) K. pneumonia (Klebsiella pneumonia; [3]): 50 µg/mL
- MIC (μg/mL) E. cloacae (Enterobacter cloacae; [4]): 25 µg/mL
- MIC (μg/mL) A. hydrophila (Aeromonas hydrophila; [5]): 12.5 µg/mL
- MIC (μg/mL) C. diversus (Citrobacter diversus; [6]): 25 µg/mL
- MIC (μg/mL) M. catarrhalis (Moraxella catarrhalis; [7]): 12.5 µg/mL
- MIC (μg/mL) P. mirabilis (Proteus mirabilis; [8]): 12.5 µg/mL
- MIC (μg/mL) P. vulgaris (Proteus vulgaris; [9]): 12.5 µg/mL
- MIC (μg/mL) S. marcescens (Serratia marcescens; [10]): 12.5 µg/mL

Substance: PRT1084 (HLVKCAEKEKTFCVNGGECFMVKDLSNPSRYLCKCQPGFTGARCT; listed as Homo sapiens)
- MIC (E. coli DH5α): 50 µg/mL
- MIC E. coli BL21 (E. coli BL21; [21]): 12.5 µg/mL
- MIC P. aeruginosa (Pseudomonas aeruginosa; [21]): 50 µg/mL
- MIC K. pneumonia (Klebsiella pneumonia; [21]): 50 µg/mL
- MIC E. cloacae (Enterobacter cloacae; [21]): 50 µg/mL
- MIC A. hydrophila (Aeromonas hydrophila; [21]): 12.5 µg/mL
- MIC C. diversus (Citrobacter diversus; [21]): 12.5 µg/mL
- MIC M. catarrhalis (Moraxella catarrhalis; [21]): 25 µg/mL
- MIC P. mirabilis (Proteus mirabilis; [21]): 12.5 µg/mL
- MIC P. vulgaris (Proteus vulgaris; [21]): 25 µg/mL
- MIC S. marcescens (Serratia marcescens; [21]): 12.5 µg/mL

Substance: PRT182 (QQPICLSGCHEQNGYCSKPAECLCRPGWQGRLCN; listed as Homo sapiens)
- MIC (E. coli DH5α): 12.5 µg/mL
- MIC (μg/mL) E. coli BL21 (E. coli BL21; [11]): 12.5 µg/mL
- MIC (μg/mL) P. aeruginosa (Pseudomonas aeruginosa; [12]): 25 µg/mL
- MIC (μg/mL) K. pneumonia (Klebsiella pneumonia; [13]): 12.5 µg/mL
- MIC (μg/mL) E. cloacae (Enterobacter cloacae; [14]): 25 µg/mL
- MIC (μg/mL) A. hydrophila (Aeromonas hydrophila; [15]): 12.5 µg/mL
- MIC (μg/mL) C. diversus (Citrobacter diversus; [16]): 25 µg/mL
- MIC (μg/mL) M. catarrhalis (Moraxella catarrhalis; [17]): 100 µg/mL
- MIC (μg/mL) P. mirabilis (Proteus mirabilis; [18]): 25 µg/mL
- MIC (μg/mL) P. vulgaris (Proteus vulgaris; [19]): 12.5 µg/mL
- MIC (μg/mL) S. marcescens (Serratia marcescens; [20]): 25 µg/mL
